Laboratory results from patent publication US6303596A, “Use of taurolidine for treatment of leukemias” (priority 2000, dated 2001).

Experiments:
[1] = system: GM5387 (fibroblasts); experiment: growth rate (proliferation) after taurolidine treatment, GM5387; format: cell-based, human; details: GM5387, 50 and 100 μg/ml taurolidine
Description: FIGS. 11A and 11B depict cell viability and growth rates for GM5387 cell line following taurolidine treatment, in terms of % trypan blue negative cells and % cell number, respectively. Cells were treated with various concentrations of taurolidine for 4 hours in AIM-V+0.01% BCS. After aliquots were collected for LDH assay, the remainder of the culture was rinsed in HBSS and resuspended in RPMI+10% BCS without taurolidine. Counts of trypan blue-negative cells (FIG. 11A), and total cell number (FIG. 11B), were recorded daily thereafter (with the measurement at Day 1 being made immediately after the 4 hour taurolidine treatment). Conditions were: no treatment (open circles); 25 μg/ml taurolidine (closed circles); 50 μg/ml taurolidine (open squares); 100 μg/ml taurolidine (closed squares); and vehicle alone (closed triangles). Doubling times were determined under each condition, and expressed as a percentage of the rate of doubling of untreated cells. These values are located to the right of the growth curves in (FIG. 11B). […]
HL-60 cells treated with 50 μl taurolidine. In these samples, LDH present in the culture medium was 8.3±2.3% of that released by completely lysed cells, compared with 2.3±0.8% measured in control cultures. […] After 4 hour treatment, cells were rinsed and returned to growth medium and monitored for viability and growth over the following 3 days. […]

[2] = system: Lymphocytes; experiment: TUNEL flow cytometry, lymphocytes in PBMC, culture medium; format: cell-based, human; details: 6 h
Description: FIG. 14A and FIG. 14B are terminal deoxytransferase-mediated deoxyuridine-triphosphate-biotin nick end labeling assay (TUNEL) analyses of control cells and taurolidine-treated PBMC, respectively. Cells were incubated with 100 μg/ml taurolidine for six hours and processed for TUNEL analysis as given below. Parallel samples were stained with FITC-conjugated anti-CD14 and propidium iodide (PI) as described below. Ten thousand events were recorded per sample. TUNEL signal (x-axis) is a measure of DNA fragmentation, which FSC (y-axis) is related to cell size. TUNEL-negative lymphocytes are bounded by the rectangle R1, while TUNEL-negative monocytes (CD14 positive cells) are bounded by the rectangle R2. The vertical line indicates demarcation between TUNEL-negative and TUNEL-positive cells. There were minimal numbers of PI-positive cells in the six hour samples (see Table IV).
In the second method, DNA fragmentation was detected via TUNEL assay according to the manufacturer's instructions. With this methodology, 2×10^6 cells were fixed with 2% paraformaldehyde, permeabilized with 0.1% Triton X-100/0.1% citrate, incubated at 37° C. with terminal deoxynucleotidyl transferase and FITC-dUTP, rinsed and analyzed by flow cytometry. Enhanced FITC signal indicates apoptosis-specific DNA fragmentation. Gavriali, et al, "Identification of programmed cell death in situ via specific labeling of nuclear DNA fragmentation," J Cell Biol 119:493 (1992). Parallel aliquots of unfixed cells were treated with PI and FITC-conjugated anti-CD14 and analyzed by flow cytometry, in order to identify cells with permeable cell membranes (since PI binds to DNA but is excluded from cells with intact plasma membranes) and also to determine the cell-specificity of the apoptotic signal.
A Becton-Dickinson FACSCalibur instrument was used for flow cytometric analysis of cells. Assessment of cell diameter (forward scatter; FCS) and granularity (side scatter; SSC).was carried out on unfixed cells. Discrimination between lymphocytes and monocytes was made possible by their characteristic differences in FSC and SSC, and confirmed by staining monocytes with FITC-labeled anti-CD14 antibodies and lymphocytes with a combination of FITC-conjugated anti-CD3 and PE-conjugated anti-CD19. After incubation with taurolidine (with or without concomitant LPS treatment), cells were rinsed twice in phosphate-buffered saline containing 0.1% bovine serum albumin (PBSA) and 1×10^6 cells were resuspended in 0.1 ml PBSA. After 5 μl FITC-conjugated anti-CD14 was added, cells were incubated in the dark on ice for 15 minutes and then centrifuged at 250×g. Cells were resuspended in 500 μl PBSA containing 5 μg/ml PI and subjected to flow cytometry.
Consequently, TUNEL analysis was performed on PBMC at 3, 6, or 24 hours after treatment with 25 to 100 μg/ml taurolidine. Aliquots of harvested cells were also labeled with FITC-conjugated anti-CD14 antibodies and PI, which allowed identification of monocytes (CD14-positive cells) and cells with damaged cell membranes (PI-positive cells). […] Thus, nearly 75% of the monocytes were TUNEL-positive following treatment with 100 μg/ml taurolidine for six hours. Confirmation that the TUNEL-positive cells were monocytes was obtained by staining with FITC-conjugated anti-CD14.
^a Analysis by flow cytometry after staining cells with FITC-conjugated
anti-CD14 and PI, and processing for TUNEL. Data are mean ± SD of two
^b Percent of cells present in the TUNEL-negative region in control

[3] = system: epithelial cells; details: 5 mg/ml taurolidine, two hours; cited from earlier work
[4] = system: Monocytes; details: 24-hour taurolidine treatment; cited from earlier work

For `O=S1(=O)CCN(CN2CCS(=O)(=O)NC2)CN1` [taurolidine, 4,4'-methylenebis(perhydro-1,2,4-thiadiazin 1,1-dioxide)], the proliferation after treatment [1] was “inhibited proliferation”, the viability at 25 µg/mL ([2]; Homo sapiens, Lymphocyte, lymphocytes, 25 μg/ml, percent of control, read-out: % TUNEL-Negative) was 100 ± 7% and the viability at 50 µg/mL ([2]; Homo sapiens, Lymphocyte, lymphocytes, 50 μg/ml, percent of control, read-out: % TUNEL-Negative) was 99.8 ± 3.4%. For the same compound, the viability at 100 µg/mL ([2]; Homo sapiens, Lymphocyte, lymphocytes, 100 μg/ml, percent of control, read-out: % TUNEL-Negative) was 102 ± 3.1%, the “cells remaining TUNEL-negative” value ([2]; lymphocytes, up to 100 μg/ml taurolidine) was roughly 100% and the apoptosis in lymphocytes ([2]; up to 100 μg/ml taurolidine, culture medium) was “did not induce detectable apoptosis”. The “toxic effects on epithelial cells” value [3] was “No toxic effects” and the “LDH release by monocytes” value [4] was “no increase in LDH release”.
